Data taken from the supplement of paper PMC8443649.

System: PATU8988T-SmBKRAS-LgBCRAF
Test: KRAS:CRAF interaction luminescence (EndoBind) relative to DMSO control (fold of DMSO); higher = more KRAS-CRAF complex
Description: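 EndoBind assay: PATU8988T cells with CRISPR knock-in SmB-KRAS(G12V) and LgB-CRAF, seeded with RealTime-Glo pro-substrate (1:2000) in 384-well plates. Cells were treated with RAF inhibitors (GDC0879, LY3009120, NVP-LHS533) or the MEK inhibitor Selumetinib, and the same plate was read for split-NanoLuc luminescence at several time points. Signal is normalised to the DMSO-treated wells at each time point; n=3 wells.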

CNc1ncc2cc(-c3cc(NC(=O)NCCC(C)(C)C)c(F)cc3C)c(C)nc2n1
KRAS:CRAF interaction luminescence
Settings	time after treatment 0 h	time after treatment 1 h	time after treatment 4 h	time after treatment 6 h	time after treatment 9 h	time after treatment 12 h
0.00375 µM	0.987	0.979	1.01	1.05	1.09	1.15
0.0075 µM	0.976	0.98	1.04	1.1	1.15	1.24
0.015 µM	0.996	0.98	1.07	1.16	1.22	1.32
0.03 µM	0.983	0.968	1.14	1.24	1.35	1.45
0.06 µM	1	0.994	1.21	1.34	1.46	1.58
0.12 µM	1	0.996	1.26	1.42	1.58	1.7
0.24 µM	0.955	0.991	1.35	1.57	1.76	1.96
0.46875 µM	0.987	1.03	1.42	1.67	1.84	2.05
0.9375 µM	0.982	1.06	1.51	1.75	1.91	2.07
1.875 µM	1	1.09	1.54	1.8	1.91	2.07
3.75 µM	0.971	1.08	1.59	1.77	1.89	2.04
7.5 µM	1.03	1.16	1.57	1.74	1.8	1.92
15 µM	1.03	1.14	1.47	1.59	1.62	1.78
30 µM	–	–	1.13	–	–	–
